Molecular target: T1, Kinesin-like protein KIF18A [1-467] (Human, UniProt Q8NI77)
T1 construct: 1-467
T1 sequence (Q8NI77 whole entry): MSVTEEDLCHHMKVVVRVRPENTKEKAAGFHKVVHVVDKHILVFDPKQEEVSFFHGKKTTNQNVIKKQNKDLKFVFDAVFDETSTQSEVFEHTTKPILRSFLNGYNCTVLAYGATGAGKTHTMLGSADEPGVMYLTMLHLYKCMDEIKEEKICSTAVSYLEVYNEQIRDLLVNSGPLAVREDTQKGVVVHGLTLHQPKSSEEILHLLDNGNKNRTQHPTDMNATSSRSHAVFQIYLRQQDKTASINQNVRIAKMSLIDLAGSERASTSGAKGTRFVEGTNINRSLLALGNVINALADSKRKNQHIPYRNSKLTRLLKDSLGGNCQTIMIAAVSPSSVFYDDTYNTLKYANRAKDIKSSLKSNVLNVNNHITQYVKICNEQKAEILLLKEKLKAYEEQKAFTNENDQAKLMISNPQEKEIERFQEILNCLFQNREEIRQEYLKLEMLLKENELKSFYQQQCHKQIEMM
Experiment: Assay on Inhibition of KIF18A Enzymatic Activity
Experimental: The reaction system consisted of a test compound, the recombinant protein KIF18A (aa 1-467), ATP (Promega Inc), and an assay buffer. The test compound was prepared into a 0.5 mM stock solution using DMSO (Sigma Inc) and then serially diluted in DMSO. The assay buffer consisted of an aqueous solution of 15 mM Tris, 10 mM MgCl2 (Sigma Inc), 0.01% Pluronic F-68 (Life Technologies Inc), 1 μM paclitaxel (Cytoskeleton Inc), 30 μg/mL porcine tubulin (Cytoskeleton Inc), and 2% DMSO. The KIF18A protein (final concentration: 80 nM) and the compound at different concentrations (1 μL) were added to the prepared assay buffer (50 μL), and the mixture was incubated at room temperature for 15 min. Then, ATP (final concentration: 80 μM) was added to the reaction mixture, and the resulting mixture was incubated at room temperature for 3 h. After the reaction was completed, 5 μL of the ADP-Glo™ reagent and 2.5 μL of the reaction mixture were added to a 384-well plate (Grenier Inc). The resulting mixture was mixed homogeneously, then sealed by an aluminum foil sealing film, and incubated at room temperature in the dark for 40 min. […] After all reactions were completed, the luminescence values of the wells were read on a microplate reader (Molecular Device_SpectraMax Id5), and the inhibition ratios were calculated.

Row | Compound | IC50 [nM]
1 | Cc1cc(-c2nnc(-c3ccc(NS(=O)(=O)CCO)cc3N3CCC4(CC3)CC4)o2)c(F)c(N2CCC(F)(F)CC2)n1 [US20250250264, Compound I-53] | 25
2 | Cc1cc(-c2nnc(-c3ccc(NS(=O)(=O)CCO)cc3N3CCC4(CC3)CC4)s2)nc(OCCC(F)(F)F)n1 [US20250250264, Compound I-99] | 3

From BindingDB's records for patent US20250250264 (Wuhan Humanwell Innovative Drug Research And Development …, 2025)
